Consider 2 molecules from US4157396A, “Hydroxamic acid derivatives and medicaments for treatment of urolithiasis and pyelonephrosis comprising such derivatives” (Eisai Co., Ltd., priority 1976, dated 1979).

Read-outs that look alike come from different tables or passages of the source.

Data set [1] can be described thus: Determination of the transfer rate into the urine and calculation of the index. It is filed as in vivo, male rats of SD strain. The conditions noted are these: rat, male SD rats, 100 mg/Kg oral, measured as urease inhibitory action in excreted urine; for dose excreted at 6 h: 0-6 hours; for dose excreted at 24 h: 6-24 hours. On the procedure:
(ii) Determination of the transfer rate into the urine
Transfer rates into the urine of the examination compounds were determined according to the method of Kobashi et al [Refer to Biochemistry (Japan) vol. 44, No. 5, pp. 187-204 (1972) and Yakugaku Zasshi vol. 12, pp. 1564-1572 (1973)] by using the male rats of SD strain having the body weight of about 280 g, administering orally each 100 mg/Kg of the compounds, and measuring the urease inhibitory action in the excreted urine within a specified period of time.
(iii) Calculation of the index
The index was calculated from the resulting values of the above examinations (i) and (ii) according to the following equation: [formula] wherein n is chosen appropriately depending on the value of I50.
The value of the index is referred to as a standard of the urease inhibitory power of the administered examination compound in the urine.
It is seen that the larger the value of the index is, the more effectively the examination compounds transfer into the urine with a form having the urease inhibitory action. Results of the determination

Data set [2] concerns Proteus mirabilis OM-1. As to the kind of experiment: Arrestment action to the calculus formation in the urine. It is filed as cell-based. The conditions noted are these: OM1, human urine with Proteus mirabilis OM-1, 24 hours, read-out: Arrest ratio to calculus formation (%), 24 hours; for inhibition at 200 µM: 2×10^-4 M; for inhibition at 1000 µM: 10^-3 M. On the procedure:
(§1) Solutions to be examined were prepared by collecting each 18 ml of fresh urine from a normal human, and adding the respective examination compounds to each of the urine to make their concentration of 10^-3 M in one group, and of 2×10^-4 in the other group. On the other hand, same solutions containing no examination compounds were prepared as blanks.
Proteus mirabilis OM-1, a urease-producing bacterium, was inoculated in said solutions, so that the number of the bacteria may amount to 10^6 cell/ml, and cultured at 37° C. After […] and 24 hours of the culture time, pH values of the solutions and amounts by weight of the formed and deposited calculus were measured. The arrestment ratio of calculus formation was calculated from said values.

The subject of data set [3] is Proteus mirabilis OM-1. The data set is described as above. It is filed as cell-based. The conditions noted are these: OM1, human urine with Proteus mirabilis OM-1, 8 hours, read-out: Arrest ratio to calculus formation (%), 8 hours; for inhibition at 200 µM: 2×10^-4 M; for inhibition at 1000 µM: 10^-3 M.
The target of data set [4] is T1, Urease collected and purified from sword beans (Canavalia gladiata) (Canavalia gladiata, UniProt A0AAN9R4W0).
T1 construct: single-chain plant urease, homohexamer by analogy with jack bean urease
As to the kind of experiment: Determination of the urease inhibitory action. It is filed as biochemical. The conditions noted are these: read-out: 50% inhibitory concentration (M) of urease <I50>. On the procedure:
(i) Determination of the urease inhibitory action
Urease was collected and purified from sword beans (Canavalia gladiata) and mol concentrations of the examination compounds for inhibiting 50% of the activity of the urease were measured by the method of Kobashi et al [Refer to Biochim. Biophys. acta 227, 429-441 (1971)].

The nature of data set [5]: Acute toxicity (LD50), oral. To be noted: rat, in vivo; oral, male SD rats about 230 g. An excerpt:
The examination was achieved by orally administering the examination compounds into male rats of SD strain weighing about 230 g, respectively.

Data set [6] has as its system Proteus mirabilis OM-1. Put plainly: Arrestment action to alkalization of the urine. Type of data set: cell-based. The conditions noted are these: normal human urine inoculated with Proteus mirabilis OM-1, 37° C. On the procedure:
as §1
Proteus mirabilis OM-1, a urease-producing bacterium, was inoculated in said solutions, so that the number of the bacteria may amount to 10^6 cell/ml, and cultured at 37° C. […] The arrestment ratio of calculus formation was calculated from said values.

T1 sequence (A0AAN9R4W0 entry or part of it): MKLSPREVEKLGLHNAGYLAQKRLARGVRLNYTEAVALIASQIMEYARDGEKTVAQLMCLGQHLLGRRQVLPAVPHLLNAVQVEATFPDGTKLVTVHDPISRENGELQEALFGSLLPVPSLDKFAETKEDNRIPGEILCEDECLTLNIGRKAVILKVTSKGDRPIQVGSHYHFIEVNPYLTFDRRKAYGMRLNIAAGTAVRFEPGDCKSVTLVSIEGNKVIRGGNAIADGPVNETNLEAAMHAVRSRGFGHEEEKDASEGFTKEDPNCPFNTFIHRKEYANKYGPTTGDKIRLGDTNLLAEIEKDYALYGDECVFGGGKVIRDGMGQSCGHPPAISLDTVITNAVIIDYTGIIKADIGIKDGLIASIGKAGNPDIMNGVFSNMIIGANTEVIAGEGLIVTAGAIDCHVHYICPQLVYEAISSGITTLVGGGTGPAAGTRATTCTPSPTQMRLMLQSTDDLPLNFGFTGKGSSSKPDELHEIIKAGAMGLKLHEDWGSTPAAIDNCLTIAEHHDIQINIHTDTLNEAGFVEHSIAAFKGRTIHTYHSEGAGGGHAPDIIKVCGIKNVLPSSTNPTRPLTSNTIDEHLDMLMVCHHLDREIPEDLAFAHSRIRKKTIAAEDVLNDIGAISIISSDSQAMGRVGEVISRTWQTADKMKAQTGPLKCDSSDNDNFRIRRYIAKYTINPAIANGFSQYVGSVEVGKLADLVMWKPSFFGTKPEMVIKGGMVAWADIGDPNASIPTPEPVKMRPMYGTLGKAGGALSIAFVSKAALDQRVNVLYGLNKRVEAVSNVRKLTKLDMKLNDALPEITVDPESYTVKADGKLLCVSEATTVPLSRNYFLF

Turning to `O=C(CNC(=O)c1ccco1)NO` [Compound R, 2-(2-furoilamino)-acetohydroxamic acid], in data set [1], the dose excreted at 6 h was 15.5% and the dose excreted at 24 h is 0.68%. Also, in the data set with Proteus mirabilis OM-1 [2], the inhibition at 200 µM is 28.4 ± 5.1% and the inhibition at 1000 µM is 72.3 ± 8.3%. Further, in the data set with Proteus mirabilis OM-1 [3], the inhibition at 200 µM was 85.6 ± 4.7% and the inhibition at 1000 µM is 84.1 ± 5.5%. In data set [4], the IC50 is 1.3e-06 M. Also, in data set [5], the LD50 was more than 5000 mg/kg. Also, in the data set on Proteus mirabilis OM-1 [6] (2×10^-4 M), the “pH value, time 0 hour” value came to 6.44±0.01; the “pH value, time 8 hours” value is 6.65±0.02; the “pH value, time 24 hours” value came out at 8.52±0.01. In the data set with Proteus mirabilis OM-1 [6] (10^-3 M), the “pH value, time 0 hour” value is recorded as 6.46±0.00; the “pH value, time 8 hours” value is 5.42±0.01; the “pH value, time 24 hours” value was 6.98±0.02.
`CC(=O)Nc1cccc(C(=O)NCC(=O)NO)c1` [Compound M, 2-(meta-acetylaminobenzamide)-acetohydroxamic acid]: in data set [1], the dose excreted at 6 h is 15% and the dose excreted at 24 h was 0.6%. In the data set on Proteus mirabilis OM-1 [2], the inhibition at 200 µM was 38.8 ± 8% and the inhibition at 1000 µM is 81.4 ± 5.6%. In the data set on Proteus mirabilis OM-1 [3], the inhibition at 200 µM is 80.1 ± 6.7% and the inhibition at 1000 µM is 91.5 ± 5.1%. In addition, in data set [4], the IC50 was 2e-06 M. The same molecule returned a median lethal dose (LD50) in data set [5] of more than 5000 mg/kg. Further, in the data set with Proteus mirabilis OM-1 [6] (2×10^-4 M), the “pH value, time 8 hours” value is given as 7.96±0.02 and the “pH value, time 24 hours” value is 8.70±0.00. In addition, in the data set on Proteus mirabilis OM-1 [6] (10^-3 M), the “pH value, time 0 hour” value turned out to be 6.78±0.02; the “pH value, time 8 hours” value is recorded as 6.79±0.01; the “pH value, time 24 hours” value came to 7.08±0.03.
